Test results from ChEMBL document CHEMBL1201862, “PubChem BioAssay data set” (2004).
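Cells were grown in 96-well plates and exposed to each compound for 48 hours at five concentrations; endpoints were interpolated linearly between bracketing concentrations, or set to the highest concentration if not reached. GI50 marks 50% less growth.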 Activity calls are given as the source filed them. No stated cut-off is given here; in the data, active = GI50 up to about 1.1 µM and inactive = higher.

What was measured:
Experiment in all cases: DTP human tumour cell line panel, 48 h
Hs-578T = tested on: Hs-578T
NCI-H522 = tested on: NCI-H522
MOLT-4 = tested on: MOLT-4
SR = tested on: SR
OVCAR-8 = tested on: OVCAR-8
M14 = tested on: M14
NCI-H226 = tested on: NCI-H226
HOP-92 = tested on: HOP-92
A498 = tested on: A498
T47D = tested on: T47D
NCI-H23 = tested on: NCI-H23
TK-10 = tested on: TK-10
UO-31 = tested on: UO-31
OVCAR-4 = tested on: OVCAR-4
ACHN = tested on: ACHN
NCI-H460 = tested on: NCI-H460
KM12 = tested on: KM12
BT-549 = tested on: BT-549
SK-MEL-5 = tested on: SK-MEL-5
UACC-62 = tested on: UACC-62

Measured: GI50

CCC1=NC(N/N=C/c2ccco2)=N/C1=C\c1ccccc1O
inactive: Hs-578T 30.6 µM | NCI-H522 21.8 µM | MOLT-4 25.2 µM | SR 48.4 µM | OVCAR-8 25.4 µM | M14 35.2 µM | NCI-H226 28.4 µM | HOP-92 70 µM | A498 68.9 µM | T47D 48.9 µM | NCI-H23 28.8 µM | TK-10 59.4 µM | UO-31 11.6 µM | OVCAR-4 2.86 µM | ACHN 21.9 µM | NCI-H460 14.9 µM | KM12 31.5 µM | BT-549 29.4 µM | SK-MEL-5 27.2 µM | UACC-62 22.3 µM

Cc1ccc(/N=C2/C(c3ccccc3)=C(SC3=C(c4ccccc4)/C(=N/c4ccc(C)cc4)c4ccccc43)c3ccccc32)cc1
inactive: Hs-578T 9.98 µM | NCI-H522 34.6 µM | MOLT-4 > 87.7 µM | SR > 100 µM | OVCAR-8 9.59 µM | M14 59.8 µM | NCI-H226 24.4 µM | HOP-92 12.1 µM | A498 15.2 µM | T47D 33.3 µM | NCI-H23 14 µM | TK-10 31.9 µM | UO-31 15.6 µM | OVCAR-4 4.09 µM | ACHN 3.38 µM | NCI-H460 8.91 µM | KM12 39.4 µM | BT-549 23.7 µM | SK-MEL-5 19.4 µM | UACC-62 16.7 µM

CCOP(=O)(OCC)/C(C#N)=C/c1ccc(-c2ccc(F)cc2F)o1
inactive: Hs-578T > 10 µM | NCI-H522 15.3 µM | MOLT-4 10.6 µM | SR 15 µM | OVCAR-8 15.2 µM | M14 17.2 µM | NCI-H226 16.5 µM | HOP-92 15.2 µM | A498 15.1 µM | T47D 3.3 µM | NCI-H23 14.5 µM | TK-10 12.6 µM | UO-31 13.1 µM | OVCAR-4 18.2 µM | ACHN 13.3 µM | NCI-H460 20 µM | KM12 16 µM | BT-549 11.7 µM | SK-MEL-5 10.6 µM | UACC-62 11.3 µM

CC(=O)Oc1c(-c2ccccc2)sc2ccccc12
inactive: Hs-578T 19.6 µM | NCI-H522 19 µM | MOLT-4 14.7 µM | SR 10.1 µM | OVCAR-8 27.2 µM | M14 > 10 µM | NCI-H226 13.3 µM | HOP-92 15.1 µM | A498 17.8 µM | T47D 10.7 µM | NCI-H23 15.1 µM | TK-10 22.6 µM | UO-31 16.8 µM | OVCAR-4 23 µM | ACHN 15.6 µM | NCI-H460 14.5 µM | KM12 18.4 µM | BT-549 21.4 µM | SK-MEL-5 18.5 µM | UACC-62 15.7 µM

CC(=O)NC1C(OC2C(CO)OC(OCC3OC(n4ccc(N)nc4=O)C(O)C3O)C(NC(C)=O)C2O)OC(CO)C(O)C1O (stereo not given)
inactive: Hs-578T > 100 µM | NCI-H522 9.2 µM | MOLT-4 > 29.4 µM | SR > 100 µM | OVCAR-8 > 91.2 µM | M14 > 100 µM | NCI-H226 > 100 µM | HOP-92 > 100 µM | A498 > 100 µM | T47D > 100 µM | NCI-H23 97.9 µM | TK-10 > 100 µM | UO-31 > 100 µM | OVCAR-4 > 100 µM | ACHN 99.8 µM | NCI-H460 > 89.3 µM | KM12 > 100 µM | BT-549 > 100 µM | SK-MEL-5 > 100 µM | UACC-62 > 100 µM

COc1ccc(/C=C/C(=O)N[C@@H]2C(=O)N3[C@@H]2SC(C)(C)[C@@H]3C(=O)O)cc1OC
inactive: Hs-578T > 100 µM | NCI-H522 85.5 µM | MOLT-4 > 100 µM | SR > 100 µM | OVCAR-8 > 100 µM | M14 > 100 µM | NCI-H226 > 100 µM | HOP-92 > 100 µM | A498 > 100 µM | T47D > 100 µM | NCI-H23 > 100 µM | TK-10 > 100 µM | UO-31 > 100 µM | OVCAR-4 > 100 µM | ACHN > 100 µM | NCI-H460 > 100 µM | KM12 > 100 µM | BT-549 > 100 µM | SK-MEL-5 > 100 µM | UACC-62 > 100 µM

c1ccc([B-]2(c3ccccc3)NCCCO2)cc1
inactive: Hs-578T 32.1 µM | NCI-H522 33.4 µM | MOLT-4 32.7 µM | SR 44.9 µM | OVCAR-8 70.5 µM | M14 31.3 µM | NCI-H226 31 µM | HOP-92 20.3 µM | A498 47.9 µM | T47D 34.9 µM | NCI-H23 47 µM | TK-10 43.2 µM | UO-31 20 µM | OVCAR-4 67.9 µM | ACHN 35.4 µM | NCI-H460 72.8 µM | KM12 91.2 µM | BT-549 31.4 µM | SK-MEL-5 24.8 µM | UACC-62 45.4 µM
